In this assay the target is T1, human GLP-1R (Homo sapiens, UniProt P43220).
T1 construct: expressed in transfected cells; host or cells: PEAK RAPID-derived Gα15-trans48 LD stably expressing cells (PRG48), transiently transfected with Lipofectamine 2000
Kind of assay: GLP-1 receptor in vitro calcium assay (intracellular free calcium concentration change induced via GLP-1 receptor). Format: cell-based. Conditions: for EC50: PRG48 cells transfected with human GLP-1R, compound added with 250 pM GLP-1, Ca2+ response ΔF/F, read-out: Ca EC50 value; for GLP-1 receptor action enhancing activity (vs BETP): intensity compared to BETP, activity of BETP as 1. On the procedure:
The supernatant was removed by centrifugation (1,200 rpm, 3 min), and the cells were suspended at 4×10^6 cells/mL in 5% FBS DMEM/Ham's F-12. 1.0 mL thereof was seeded in a 15 cm dish and cultured (37° C., 5% CO2) overnight. The next day, the medium of the cultured PRG48 cells was replaced with 5% FBS DMEM/Ham's F-12 medium (30 mL), human GLP-1R gene mixture solution (GLP-1R/pc.DNA3.1(+) 60 μg) prepared using 6.0 mL of Opti-MEM (invitrogen) and 120 μL of Lipofectamin 2000 (invitrogen) was slowly added to the cells, and cultured (37° C., 5% CO2) for 6 hr to introduce the gene. […] The cells were counted, suspended at 0.5×10^6 cells/mL in 5% FBS DMEM/Ham's F-12 medium, and seeded in each well of D-Lysine coat 96 well plate (BD Bioscience) at 7.0×10^4 cells. After static adhesion at room temperature for 1 hr, the cells were cultured overnight (37° C., 5% CO2). The medium in the Cultured 96 well was entirely discarded, 150 μL of intracellular calcium measurement staining solution Calcium assay kit Express (Molecular Device) diluted 80-fold with Assay buffer (20 mM HEPES, 146 mM NaCl, 1 mM MgSO4, 1.39 mM glucose, 1 mM CaCl2, 2.5 mM Probenecid, 0.05% Casein Enzymatic Hydrolysate) was added, and the mixture was stood at 37° C. for 30 min, and then at room temperature for 45 min to perform staining. After staining, 250 pM GLP-1 and the compound were added and Ca^2+ response was observed by using FDSSμCELL (Hamamatsu Photonics K.K.). Each evaluation compound was dissolved in DMSO, further diluted with Assay buffer and used.
For evaluation, the fluorescence values (Ex480:Em540) before and after addition were measured, and changes in the intracellular free calcium concentration produced via GLP-1R receptor by the addition were quantitatively examined. For the measurement and analysis of the fluorescence values, a soft (FDSS7000EX) attached to the FDSSμCELL was used, and ΔF/F value ((maximum fluorescence value after stimulation−minimum fluorescence value after stimulation)/fluorescence value before stimulation) was calculated. Using the obtained ΔF/F values, EC50 value was calculated by Prism5.

Structures are written as SMILES.

T1 sequence (P43220 24-463): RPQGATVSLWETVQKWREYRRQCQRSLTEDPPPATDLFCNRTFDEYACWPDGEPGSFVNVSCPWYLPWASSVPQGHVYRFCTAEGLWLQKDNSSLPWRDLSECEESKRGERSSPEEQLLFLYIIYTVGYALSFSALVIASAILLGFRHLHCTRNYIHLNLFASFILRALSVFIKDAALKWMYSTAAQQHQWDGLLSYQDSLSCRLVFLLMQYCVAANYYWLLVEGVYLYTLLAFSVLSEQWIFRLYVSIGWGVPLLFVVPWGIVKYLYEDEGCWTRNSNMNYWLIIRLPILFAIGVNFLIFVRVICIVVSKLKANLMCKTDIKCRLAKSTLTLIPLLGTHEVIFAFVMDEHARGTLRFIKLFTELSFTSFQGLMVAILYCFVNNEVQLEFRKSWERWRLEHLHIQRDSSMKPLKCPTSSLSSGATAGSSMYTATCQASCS

As a reminder, the EC50 is the midpoint of the concentration-response curve. As to `CC(C)CCCC(C)NC(=O)[C@@H](CC1CCCCC1)NC(=O)Nc1cccc(NS(=O)(=O)c2ccc(C(C)(C)C)cc2)c1` (stereo partly shown) [Compound 92], the EC50 was 24 nM and the “GLP-1 receptor action enhancing activity (vs BETP)” value came out at 1028.

For `Cc1ccc(S(=O)(=O)Nc2ccc(NC(=O)N[C@H](Cc3c[nH]c4ccccc34)C(=O)NC3CCCCCC3)cc2)cc1` [Compound 43], the EC50 is 160 nM and the “GLP-1 receptor action enhancing activity (vs BETP)” value came to 160.

`CCCCCCCCNC(=O)[C@@H](Cc1ccccc1)NC(=O)Nc1ccc(NS(=O)(=O)c2ccc(C)cc2)cc1` [Compound 5]: the EC50 was determined as 51 nM and the “GLP-1 receptor action enhancing activity (vs BETP)” value is recorded as 490.

Turning to `Cc1ccc(S(=O)(=O)Nc2ccc(NC(=O)N[C@H](CC(C)C)C(=O)NCCC3CCCCC3)cc2)cc1` [Compound 48], the EC50 came out at 280 nM and the “GLP-1 receptor action enhancing activity (vs BETP)” value was determined as 92.

Consider `Cc1ccc(S(=O)(=O)Nc2ccc(NC(=O)N[C@H](CC(C)C)C(=O)NCCc3cccs3)cc2)cc1` [Compound 28], for which the EC50 worked out at 1800 nM and the “GLP-1 receptor action enhancing activity (vs BETP)” value was determined as 14.

For the compound `CC(C)(C)SCCCCCNC(=O)[C@@H](CC1CCCCC1)NC(=O)Nc1ccc(NS(=O)(=O)c2ccc(C(C)(C)C)cc2)cc1` [Compound 99], the EC50 was 150 nM and the “GLP-1 receptor action enhancing activity (vs BETP)” value amounted to 169.

`Cc1ccc(S(=O)(=O)Nc2ccc(NC(=O)N[C@H](CC(=O)OC(C)(C)C)Cc3ccccc3)cc2)cc1` [Compound 76]: the EC50 was 1600 nM and the “GLP-1 receptor action enhancing activity (vs BETP)” value is 16.

On to `CC(C)CCCC(C)NC(=O)[C@H](Cc1ccc(Cl)cc1)NC(=O)Nc1ccc(NS(=O)(=O)c2ccc(C(C)(C)C)cc2)cc1` (stereo partly shown) [Compound 58], for which the EC50 came out at 4.6 nM.

As for `COc1cc(NC(=O)N[C@H](Cc2ccccc2)C(=O)OC(C)(C)C)ccc1NS(=O)(=O)c1ccc(C)cc1` [Compound 88], the EC50 was 1300 nM and the “GLP-1 receptor action enhancing activity (vs BETP)” value came out at 20.

As to `CC(C)c1ccc(S(=O)(=O)Nc2ccc(NC(=O)N[C@@H](Cc3ccccc3)C(=O)OC(C)(C)C)cc2)cc1` [Compound 72], the EC50 was determined as 680 nM and the “GLP-1 receptor action enhancing activity (vs BETP)” value was 37.

For `CC(C)(C)c1ccc(S(=O)(=O)Nc2ccc(NC(=O)N[C@@H](CC3CCCCC3)c3nc(-c4ccc(OC(F)(F)F)cc4)no3)cc2)cc1` [Compound 84], the EC50 turned out to be 3.4 nM and the “GLP-1 receptor action enhancing activity (vs BETP)” value turned out to be 7358.

For `CCCCCCNC(=O)[C@@H](CCSC)NC(=O)Nc1ccc(NS(=O)(=O)c2ccc(C)cc2)cc1` [Compound 20], the EC50 was 1500 nM and the “GLP-1 receptor action enhancing activity (vs BETP)” value is given as 17.

For the compound `CCCCCCNc1ccc(S(=O)(=O)Nc2cccc(NC(=O)N[C@H](CC3CCCCC3)C(=O)NCCCSC)c2)cn1` [Compound 113], the EC50 worked out at 28 nM and the “GLP-1 receptor action enhancing activity (vs BETP)” value is reported as 898.

As to `CCCCCCCNC(=O)[C@@H](Cc1ccccc1)NC(=O)Nc1ccc(NS(=O)(=O)c2ccc(C)cc2)cc1` [Compound 6], the EC50 is 130 nM and the “GLP-1 receptor action enhancing activity (vs BETP)” value worked out at 187.

As to `Cc1ccc(S(=O)(=O)Nc2ccc(NC(=O)N[C@H](CC(C)C)C(=O)OC(C)(C)C)cc2)cc1` [Compound 64], the EC50 was 1600 nM and the “GLP-1 receptor action enhancing activity (vs BETP)” value is 15.

With `CC(C)CCCC(C)NC(=O)[C@@H](Cc1ccncc1)NC(=O)Nc1ccc(NS(=O)(=O)c2ccc(C(C)(C)C)cc2)cc1` (stereo partly shown) [Compound 106], the EC50 was found to be 390 nM and the “GLP-1 receptor action enhancing activity (vs BETP)” value amounted to 64.

With `CCCCC(CC)CNC(=O)[C@@H](Cc1ccccc1)NC(=O)Nc1ccc(NS(=O)(=O)c2ccc(C(C)(C)C)cc2)cc1` (stereo partly shown) [Compound 36], the EC50 amounted to 18 nM and the “GLP-1 receptor action enhancing activity (vs BETP)” value stood at 1425.

As to `CCCCCCNC(=O)[C@@H](CC(C)C)NC(=O)Nc1ccc(NS(=O)(=O)c2ccc(C)cc2)cc1` [Compound 11], the EC50 came out at 490 nM and the “GLP-1 receptor action enhancing activity (vs BETP)” value amounted to 52.

As to `CCCCCCCCNC(=O)[C@H](CC1CCCCC1)NC(=O)Nc1ccc(NS(=O)(=O)c2ccc(C(C)(C)C)cc2)cc1` [Compound 57], the EC50 came to 3.4 nM and the “GLP-1 receptor action enhancing activity (vs BETP)” value is given as 7462.

Turning to `Cc1ccc(S(=O)(=O)Nc2ccc(NC(=O)N[C@H](Cc3ccccc3)C(=O)NCc3cccs3)cc2)cc1` [Compound 12], the EC50 was 540 nM and the “GLP-1 receptor action enhancing activity (vs BETP)” value is on record as 47.

With `CSCCCN(c1ccc(NC(=O)N[C@H](Cc2c[nH]c3ccccc23)C(=O)NC(C)CCCC(C)C)cc1)S(=O)(=O)c1ccc(C(C)(C)C)cc1` (stereo partly shown) [Compound 112], the EC50 amounted to 11 nM and the “GLP-1 receptor action enhancing activity (vs BETP)” value is listed as 2206.

Consider `Cc1ccc(S(=O)(=O)Nc2ccc(NC(=O)N[C@H](Cc3ccccc3)C(=O)NCC3CCCCC3)cc2)cc1` [Compound 8], for which the EC50 came to 500 nM and the “GLP-1 receptor action enhancing activity (vs BETP)” value is given as 50.

Regarding `CCCCCCNc1ccc(S(=O)(=O)Nc2ccc(NC(=O)N[C@H](CC3CCCCC3)C(=O)NC(C)CCCC(C)C)cc2)cn1` (stereo partly shown) [Compound 105], the EC50 was found to be 440 nM and the “GLP-1 receptor action enhancing activity (vs BETP)” value was determined as 56.

For `CSCCCNC(=O)[C@@H](CC1CCCCC1)NC(=O)Nc1ccc(NS(=O)(=O)c2ccc(C(C)(C)C)cc2)cc1` [Compound 91], the EC50 amounted to 56 nM and the “GLP-1 receptor action enhancing activity (vs BETP)” value is 446.

As to `Cc1ccc(S(=O)(=O)Nc2ccc(NC(=O)N[C@H](Cc3ccccc3)C(=O)NC(C)CCCC(C)C)cc2)cc1` (stereo partly shown) [Compound 55], the EC50 came to 45 nM and the “GLP-1 receptor action enhancing activity (vs BETP)” value is on record as 558.

Regarding `COC(C)(C)CNC(=O)[C@@H](Cc1ccccc1)NC(=O)Nc1ccc(NS(=O)(=O)c2ccc(C)cc2)cc1` [Compound 9], the EC50 came to 650 nM and the “GLP-1 receptor action enhancing activity (vs BETP)” value stood at 39.

Regarding `Cc1ccc(S(=O)(=O)Nc2ccc(NC(=S)N[C@H](Cc3ccccc3)C(=O)OC(C)(C)C)cc2)cc1` [Compound 68], the EC50 came out at 1200 nM and the “GLP-1 receptor action enhancing activity (vs BETP)” value was 22.

With `Cc1ccc(S(=O)(=O)Nc2ccc(NC(=O)N[C@H](Cc3ccccc3)C(=O)NCc3ccccc3)cc2)cc1` [Compound 14], the EC50 worked out at 1800 nM and the “GLP-1 receptor action enhancing activity (vs BETP)” value was 14.

`CCCCC(CC)CNC(=O)[C@@H](CC1CCCCC1)NC(=O)Nc1ccc(N2CCOCC2)c(NS(=O)(=O)c2ccc(C(C)(C)C)cc2)c1` (stereo partly drawn) [Compound 100, (2R)-2-({3-[(4-tert-butylphenyl)sulfonylamino]-4-morpholino-phenyl}carbamoylamino)-3-cyclohexyl-N-(2-ethylhexyl)propanamide]: the EC50 is 50 nM and the “GLP-1 receptor action enhancing activity (vs BETP)” value worked out at 503.

Consider `Cc1ccc(S(=O)(=O)Nc2ccc(NC(=O)N[C@H](Cc3ccccc3)c3nnc(S)n3-c3ccccc3)cc2)cc1` [Compound 90], for which the EC50 amounted to 1400 nM and the “GLP-1 receptor action enhancing activity (vs BETP)” value is listed as 18.

With `Cc1ccc(S(=O)(=O)Nc2ccc(NC(=O)N[C@H](Cc3ccccc3)C(=O)NCc3ccc(F)cc3)cc2)cc1` [Compound 26], the EC50 worked out at 1100 nM and the “GLP-1 receptor action enhancing activity (vs BETP)” value was determined as 24.

For the origin of these results see US20190022039A1, “COMPOUND HAVING ENHANCING ACTIVITY FOR GLUCAGON-LIKE PEPTIDE-1 RECEPTOR ACTIONS” (AJINOMOTO CO., INC., priority 2016, published 2019).
